Structures are written as SMILES. pIC50: −log10 of the molar value.

IC50 data for 19 compounds are collected here from US11312719B2, “9-substituted amino triazolo quinazoline derivatives as adenosine receptor antagonists, pharmaceutical compositions and their use” (Merck Sharp & Dohme Corp., priority 2018, dated 2022).

For assay [1], the target named is human A2A receptors (Homo sapiens (Human), UniProt P29274). The assay can be described thus: A2A antagonism in cAMP cell-based assay (LANCE cAMP, HEK293). The note with it: HEK293 cells expressing human A2A receptor. As to the method:
(§1) Measurement of A2A and A2B Antagonism in cAMP Cell-Based Assay
(§2) The ability of compounds to antagonize human A2A and A2B adenosine receptors was determined using a kit to measure changes in intracellular cyclic AMP levels (LANCE cAMP 384 Kit, Perkin Elmer, Cat. No. AD0264). HEK293 cells recombinantly expressing either human A2A or A2B receptors, previously frozen in Recovery Medium (Life Technologies, Cat. No. 12648-010) were thawed and diluted into stimulation buffer (HBSS (Hyclone SH 30268.01), 5 mM HEPES (Gibco 15630-106), 200 nM rolipram (Tocris, Cat. No. 0905), and 1.5% (V/v) BSA stabilizer (kit component). The cell suspension was centrifuged at 200×g for 10 min and then resuspended in stimulation buffer, supplemented with a 1:10 000 dilution of Alexa Fluor 647 anti-cAMP antibody, to a density of 6.0×10^5 cells/mL. A Labcyte Echo 550 acoustic dispenser was used to transfer up to 25 nL of test compound dissolved in DMSO into the wells of a dry Optiplate-384 plate (Perkin Elmer, Cat. No. 6008289). All subsequent liquid additions were performed using a multichannel pipettor. Next, 5 μL of the cell suspension was added to the wells of the Optiplate-384 and incubated for 30 min. at 37° C. and 5% CO2 in a humidified environment. After this time 5 μL of either 300 nM or 600 nM adenosine (Sigma Cat. No. A9251) for A2A and A2B respectively was added and incubated for 30 minutes at 37° C. and 5% CO2 in a humidified environment. At this time detection mix was prepared by combining the LANCE Eu-W8044 labeled streptavidin and Biotin-cAMP in detection buffer according to the manufacturers protocol. 10 μL of the detection mix was added to each well of the Optiplate-384 which was covered with a plate seal and incubated under ambient conditions for 2 hours prior to reading the plate using an Envision (Perkin Elmer, Waltham, Mass.) multimode plate reader. Data was normalized by defining minimal effect as stimulation in the presence of 0.25% (v/v) DMSO and maximal effect as stimulation in the presence of 1 μM ZM241385 (Cayman, Cat. No. 1036). Curve fitting of the percent effect data versus the log of compound concentration used a 4-parameter concentration response curve fitting algorithm to calculate IC50 values. Compound concentrations tested were 10,000, 3,333, 1,111, 370.4, 123.4, 41.2, 13.7, 4.6, 1.5 and 0.5 nM with 0.25% residual DMSO.

Assay [2] addresses human A2B receptors (Homo sapiens (Human), UniProt P29275). The assay can be described thus: A2B antagonism in cAMP cell-based assay (LANCE cAMP, HEK293). The note with it: HEK293 cells expressing human A2B receptor. As to the method: as §1, §2

Sequence of human A2B receptors (P29275 whole entry): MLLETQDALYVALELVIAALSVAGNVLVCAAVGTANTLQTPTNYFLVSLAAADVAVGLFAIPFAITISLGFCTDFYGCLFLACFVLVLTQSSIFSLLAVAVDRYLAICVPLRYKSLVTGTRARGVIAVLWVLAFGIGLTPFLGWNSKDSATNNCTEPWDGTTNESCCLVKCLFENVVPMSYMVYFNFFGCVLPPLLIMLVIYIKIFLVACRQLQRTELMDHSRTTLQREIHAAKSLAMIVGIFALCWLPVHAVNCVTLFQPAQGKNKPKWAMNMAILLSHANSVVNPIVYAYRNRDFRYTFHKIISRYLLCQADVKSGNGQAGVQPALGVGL
Sequence of human A2A receptors (P29274 whole entry): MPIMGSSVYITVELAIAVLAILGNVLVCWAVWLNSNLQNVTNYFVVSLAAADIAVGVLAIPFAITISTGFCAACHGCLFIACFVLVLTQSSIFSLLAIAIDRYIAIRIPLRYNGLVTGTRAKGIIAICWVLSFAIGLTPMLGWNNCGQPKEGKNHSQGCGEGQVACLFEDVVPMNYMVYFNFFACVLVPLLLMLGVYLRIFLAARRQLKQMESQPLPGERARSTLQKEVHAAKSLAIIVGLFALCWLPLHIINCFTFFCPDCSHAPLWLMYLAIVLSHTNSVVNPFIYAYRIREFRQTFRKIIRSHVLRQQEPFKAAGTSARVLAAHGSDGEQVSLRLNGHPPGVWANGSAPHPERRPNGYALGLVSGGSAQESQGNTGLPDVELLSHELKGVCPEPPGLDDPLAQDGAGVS

With `COc1cc2nc(N)n3nc(C4CCC(C)N(c5cnn(CC6(O)CC6)c5)C4)nc3c2cc1F` (single isomer, unassigned) [Example 272, 1-((4-((2S,5R or 2R,5S)-5-(5-amino-9-fluoro-8-methoxy-[1,2,4]triazolo[1,5-c]quinazolin-2-yl)-2-methylpiperidin-1-yl)-1H-pyrazol-1-yl)methyl)cyclopropan-1-ol], the results for the pIC50 in assay [1] and in assay [2] were 7.36 and 5.24, respectively.

Turning to `COc1cc(F)cc2c1nc(N)n1nc(C3CC(C)CN(c4cn(C(C)(C)C(C)O)nc4C)C3)nc21` (single isomer, unassigned) [Example 207, (R or S)-3-(4-((3S,5R or 3R,5S)-3-(5-amino-9-fluoro-7-methoxy-[1,2,4]triazolo[1,5-c]quinazolin-2-yl)-5-methylpiperidin-1-yl)-3-methyl-1H-pyrazol-1-yl)-3-methylbutan-2-ol], the pIC50 in assay [1] was 9.05; in assay [2] it was 7.98.

On to `COc1cc2nc(N)n3nc(C4CCC(C)N(c5cnn(C(C)(C)C(C)O)c5)C4)nc3c2cc1F` (single isomer, unassigned) [Example 265, (S or R)-3-(4-((2S,5R or 2R,5S)-5-(5-amino-9-fluoro-8-methoxy-[1,2,4]triazolo[1,5-c]quinazolin-2-yl)-2-methylpiperidin-1-yl)-1H-pyrazol-1-yl)-3-methylbutan-2-ol], for which the values for the pIC50 in assay [1] and in assay [2] were 8.89 and 8.35, respectively.

Turning to `Cc1nn(C(C)(C)CO)cc1N1CC(C)CC(c2nc3c4cc(F)cc(F)c4nc(N)n3n2)C1` (single isomer, unassigned) [Example 177, 2-(4-((3R,5S or 3S,5R)-3-(5-amino-7,9-difluoro-[1,2,4]triazolo[1,5-c]quinazolin-2-yl)-5-methylpiperidin-1-yl)-3-methyl-1H-pyrazol-1-yl)-2-methylpropan-1-ol], the pIC50 was 6.81 in assay [1] and 5.40 in assay [2].

As for `COc1cc(F)cc2c1nc(N)n1nc(C3CC(C)CN(c4cn(C(C)(C)CO)nc4C)C3)nc21` (single isomer, unassigned) [Example 176, 2-(4-((3S,5R or 3R,5S)-3-(5-amino-9-fluoro-7-methoxy-[1,2,4]triazolo[1,5-c]quinazolin-2-yl)-5-methylpiperidin-1-yl)-3-methyl-1H-pyrazol-1-yl)-2-methylpropan-1-ol], the results for the negative logarithm of the IC50 (pIC50) in assay [1] and in assay [2] were 9.05 and 7.99, respectively.

On to `CC(O)C(C)n1cc(N2CC(c3nc4c5cc(F)cc(F)c5nc(N)n4n3)CCC2C)cn1` (single isomer, unassigned) [Example 234, (2R,3R or 2S,3S)-3-(4-((2R,5S or 2S,5R)-5-(5-amino-7,9-difluoro-[1,2,4]triazolo[1,5-c]quinazolin-2-yl)-2-methylpiperidin-1-yl)-1H-pyrazol-1-yl)butan-2-ol], for which the negative logarithm of the IC50 (pIC50) was 7.33 in assay [1] and 5.92 in assay [2].

In the case of `Cc1nn(C(C)C(C)O)cc1N1CCC[C@@H](c2nc3c4cc(F)cc(F)c4nc(N)n3n2)C1` (single isomer, unassigned) [Example 191, (2S,3S or 2R,3R)-3-(4-((R)-3-(5-amino-7,9-difluoro-[1,2,4]triazolo[1,5-c]quinazolin-2-yl)piperidin-1-yl)-3-methyl-1H-pyrazol-1-yl)butan-2-ol], the negative logarithm of the IC50 (pIC50) in assay [1] is 9.05; in assay [2], 7.03.

As for `COc1cc2nc(N)n3nc(C4CCC(C)N(c5cnn(CC(C)(C)N)c5)C4)nc3c2cc1F` (single isomer, unassigned) [Example 262, 2-((3R,6S or 3S,6R)-1-(1-(2-amino-2-methylpropyl)-1H-pyrazol-4-yl)-6-methylpiperidin-3-yl)-9-fluoro-8-methoxy-[1,2,4]triazolo[1,5-c]quinazolin-5-amine], the negative-log IC50 (pIC50) in assay [1] is 8.66; in assay [2] it was 7.62.

For `COc1cc(F)cc2c1nc(N)n1nc(C3CC(C)CN(c4cnn(CC(C)(C)O)c4C)C3)nc21` (single isomer, unassigned) [Example 174, 1-(4-((3S,5R or 3R,5S)-3-(5-amino-9-fluoro-7-methoxy-[1,2,4]triazolo[1,5-c]quinazolin-2-yl)-5-methylpiperidin-1-yl)-5-methyl-1H-pyrazol-1-yl)-2-methylpropan-2-ol], the pIC50 is 9.22 in assay [1] and 7.51 in assay [2].

As to `CC1CCC(c2nc3c4cc(F)cc(F)c4nc(N)n3n2)CN1c1cnn(CC(C)(CO)CO)c1` (single isomer, unassigned) [Example 260], the negative-log IC50 (pIC50) in assay [1] is 8.77; in assay [2] it was 8.00.

As for `CC1CC(c2nc3c4cc(F)cc(F)c4nc(N)n3n2)CN(c2cnn(C(C)(C)CO)c2)C1` (single isomer, unassigned) [Example 179], the figures for the pIC50 in assay [1] and in assay [2] were 8.40 and 6.47, respectively.

In the case of `COc1cc(F)cc2c1nc(N)n1nc([C@@H]3CCCN(c4cnn(C(C)C(C)O)c4C)C3)nc21` (single isomer, unassigned) [Example 194, (2R,3R or 2S,3S)-3-(4-((R)-3-(5-amino-9-fluoro-7-methoxy-[1,2,4]triazolo[1,5-c]quinazolin-2-yl)piperidin-1-yl)-5-methyl-1H-pyrazol-1-yl)butan-2-ol], the pIC50 in assay [1] was 8.77; in assay [2], 6.50.

Consider `CCC(C)(O)Cn1cc(N2CCC[C@@H](c3nc4c5cc(F)c(OC)cc5nc(N)n4n3)C2)cn1` (single isomer, unassigned) [Example 184, (S or R)-1-(4-((R)-3-(5-amino-9-fluoro-8-methoxy-[1,2,4]triazolo[1,5-c]quinazolin-2-yl)piperidin-1-yl)-1H-pyrazol-1-yl)-2-methylbutan-2-ol], for which the negative-log IC50 (pIC50) in assay [1] is 8.31; in assay [2], 6.46.

With `Cc1nn(C(C)C(C)O)cc1N1CC(C)CC(c2nc3c4cc(F)cc(F)c4nc(N)n3n2)C1` (single isomer, unassigned) [Example 214, (2R,3R or 2S,3S)-3-(4-((3S,5R or 3R,5S)-3-(5-amino-7,9-difluoro-[1,2,4]triazolo[1,5-c]quinazolin-2-yl)-5-methylpiperidin-1-yl)-3-methyl-1H-pyrazol-1-yl)butan-2-ol], the pIC50 was 9.30 in assay [1] and 7.47 in assay [2].

As to `CC(O)C(C)(C)n1cc(N2CCC[C@@H](c3nc4c5cc(F)cc(F)c5nc(N)n4n3)C2)cn1` (single isomer, unassigned) [Example 247, (S or R)-3-(4-((R)-3-(5-amino-7,9-difluoro-[1,2,4]triazolo [1,5-c]quinazolin-2-yl)piperidin-1-yl)-1H-pyrazol-1-yl)-3-methylbutan-2-ol], the figures for the pIC50 in assay [1] and in assay [2] were 8.35 and 7.66, respectively.

`COc1cc(F)cc2c1nc(N)n1nc(C3CC(C)CN(c4cnn(C(C)(C)CO)c4)C3)nc21` (single isomer, unassigned) [Example 166, 2-(4-((3S,5R or 3R,5S)-3-(5-amino-9-fluoro-7-methoxy-[1,2,4]triazolo[1,5-c]quinazolin-2-yl)-5-methylpiperidin-1-yl)-1H-pyrazol-1-yl)-2-methylpropan-1-ol]: the negative-log IC50 (pIC50) in assay [1] was 7.70; in assay [2] it was 5.56.

Consider `COc1cc2nc(N)n3nc([C@H]4CC[C@@H](C)N(c5cnn([C@@H](C)[C@H](C)O)c5)C4)nc3c2cc1F` (single isomer, unassigned) [Example 229, (2S,3S or 2R,3R)-3-(4-((2R,5S or 2S,5R)-5-(5-amino-9-fluoro-8-methoxy-[1,2,4]triazolo[1,5-c]quinazolin-2-yl)-2-methylpiperidin-1-yl)-1H-pyrazol-1-yl)butan-2-ol], for which the values for the pIC50 in assay [1] and in assay [2] were 9.00 and 8.18, respectively.

Take `COc1cc(F)cc2c1nc(N)n1nc(C3CC(C)CN(c4cn(C(C)(C)C(C)O)nc4C)C3)nc21` (single isomer, unassigned) [Example 205, (R or S)-3-(4-((3R,5S or 3S,5R)-3-(5-amino-9-fluoro-7-methoxy-[1,2,4]triazolo[1,5-c]quinazolin-2-yl)-5-methylpiperidin-1-yl)-3-methyl-1H-pyrazol-1-yl)-3-methylbutan-2-ol]: the negative-log IC50 (pIC50) is 8.15 in assay [1] and 5.94 in assay [2].

As to `COc1cc2nc(N)n3nc([C@@H]4C[C@H](C)CN(c5cnn(CC(C)(C)O)c5)C4)nc3c2cc1F` (single isomer, unassigned) [Example 157, 1-(4-((3R,5S or 3S,5R)-3-(5-amino-9-fluoro-8-methoxy-[1,2,4]triazolo[1,5-c]quinazolin-2-yl)-5-methylpiperidin-1-yl)-1H-pyrazol-1-yl)-2-methylpropan-2-ol], the negative-log IC50 (pIC50) in assay [1] was 7.48; in assay [2], 5.35.
